Measured values published in US6281250A, “Retinyl ethers, derivatives and analogues and inhibition of breast carcinogenesis” (Southern Research Institute, priority 1999, dated 2001).
Entries after “also recorded” stand apart in the source; their conditions may differ.

Experiments:
[1] = 24 hours or similar, protected from light and air; Shealy et al, 1997; cited from earlier work
[2] = Analysis of feed samples for stability of retinyl ethers; format: physicochemical; details: for % recovery of retinyl ether: Vehicle + Retinoid (only); for stability in diet mixtures: conditions of storage and feeding in animal rooms
Experimental: (§1) The 2,5-dimethoxybenzyl (3b) and 4-methoxybenzyl (3e) ethers were tested in the same way in a 90-day study. […] The 2,5-dimethybenzyl (3c) and the 2,3-dimethoxybenzyl (3h) ethers, together with RTMBE for comparison, were likewise assayed according to the same methodology. Prior to the beginning of this study, specimens of the retinoid-diet mixtures were placed under the conditions that were employed during the storage and feeding of RTMBE, 3c, and 3h. The specimens were extracted with butanol, and the extracts were analyzed by HPLC. […] Testing of 3c and 3h was discontinued, but the RTMBE study was continued until the duration of the study was 180 days (Table 6). The results were similar to those of Experiment 1 (Table 3). The averages of the number of tumors per rat were reduced by 32-35%; in addition, the averages of the tumor weights per rat was 56-70% lower than the average tumor burden of the control group.
^a The values in each column are % recoveries of the retinyl ether from
mixtures of the ether with feed samples and are based on the actual
amounts of the ether that were added.
^b The samples that were analyzed were mixtures of vehicle, retinoid,
and feed (prepared as described by Shealy et al., 1997).
^c Food cups were placed in animal cages within the room that housed
the rats; therefore, temperature (22° C.) and lighting were
identical to those in use during the in vivo tests.

[3] = Toxicity observations in rats receiving retinoids in feed; format: in vivo, rat (Sprague-Dawley); details: administered in feed
Experimental: (§2) Retinoid diet mixtures were stored at 4° C. […] The animals were palpated for mammary tumors 2×/week. […] Also, five rats/group had complete necropsies performed.

[4] = tested on: MNU-induced mammary cancer; test: Short-term (90-day) assay against MNU-induced mammary cancer in rats (Expts. 2 and 3); format: in vivo, rat (female Sprague-Dawley); details: for effectiveness in reducing the number of tumors per rat: in feed
Experimental: as §2, §1
and was continued until the studies of 3b, 3c, 3e, and 3h were terminated
90 days after administration of MNU. The RTMBE experiment was continued
until 180 days after MNU administration (Table VI).
kilogram of Teklad diet.

in vivo = details: for NOAEL: mouse, in vivo, po; for Toxic Dose: oral gavage in corn oil, 28-29 days; for clinical toxicity (alopecia, scaly skin, limping): oral gavage, up to highest dose (RTMBE and RMoBE-4: Expt. 2)
Experimental: Toxicological evaluations involving measurement of body weights and observations of clinical signs characteristic of retinoid toxicity were accomplished as previously described (Lin et al., 1996).
RTMBE and two of its analogues, together with RME and RPE, were selected for estimation of their toxicities to mice when administered during 28-29 days by gavage in corn oil (Table 8). Mice were evaluated for changes in body weight and for signs of clinical retinoid toxicity (hypervitaminosis A) including alopecia, scaly skin, and limping. In the first experiment, these retinyl ethers were given at equimicromolar doses at three dose levels. The retinyl benzyl ethers (RTMBE, 3c, and 3e) were then tested at higher doses in a second experiment.

[5] = target: T1, cellular retinol-binding protein (CRBP) (Rattus norvegicus, UniProt P02696); test: Binding to cellular retinol-binding protein (CRBP): inhibition of [3H]retinol binding, sucrose density-gradient sedimentation; details: for Percent Inhibition of [3H] Retinol Binding (CRBP Assay): 150-fold molar excess of unlabelled test retinoid, rat testes cytosol
T1 construct: portions of rat testes cytosol (1 mg protein) were incubated; from tissue; host or cells: rat testes cytosol
T1 sequence (P02696 1-135): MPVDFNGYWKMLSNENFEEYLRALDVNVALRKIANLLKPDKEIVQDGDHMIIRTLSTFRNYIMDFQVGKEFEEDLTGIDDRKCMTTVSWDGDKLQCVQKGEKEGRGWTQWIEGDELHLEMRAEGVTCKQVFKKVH
Experimental: Binding affinities of the retinyl ethers for CRBP were determined by sucrose, density-gradient, sedimentation analysis as described before (Sani et al., 1980). Briefly, portions of rat testes cytosol (1 mg protein) were incubated with [^3 H]retinol (50 pmol) in the presence or absence of a 150-fold molar excess of unlabeled retinol or the test retinoids. The preparations after dialysis were analyzed by 5-20% sucrose density gradient sedimentation. For measuring the competitive binding of the unlabeled retinoids, inhibition of [^3 H]retinol binding to CRBP by unlabeled retinol is regarded as 100%. The mean and standard deviation calculated from the relative inhibitions obtained from multiple determinations were used as the relative binding affinities of the various retinyl ethers.
The group of retinyl benzyl ethers has now been evaluated for binding to CRBP. Binding to CRBP, as defined for Table I, at approximately 60% or higher was rated as strong; at 40-60%, as moderate; at 20-40%, as low.
^a Per cent inhibition of binding of tritiated retinol to CRBP by a
150-fold molar excess of the unlabelled test retinoid (Sani et al., 1980,

[6] = Mammary tissue-to-plasma concentration after intravenous dosing; format: in vivo, rat (female Sprague-Dawley); details: rat, 5 mg/kg i.v., after 24 hr, read-out: ratio of mammary tissue-to-plasma concentrations
[7] = tested on: carcinogen-induced mammary cancer; details: rats; Thompson et al., 1978 / Shealy et al., 1997; cited from earlier work
[8] = rat, in feed; Shealy et al., 1997; cited from earlier work
[9] = tested on: MNU-induced mammary cancer; details: 160 days
Experimental: Briefly, diets were prepared by mixing each retinoid with Wayne meal or Teklad (4%) mash diet. For each kg of diet, the retinoid was dissolved in 12 g ethanol, 19 g trioctanoin, 0.05 mL Tenox 20, and 0.05 mL d,1-alpha tocopherol prior to incorporation into the feed using a Patterson-Kelly blender. Retinoid diet mixtures were stored at 4° C. Portions of each retinoid-diet mixture were analyzed for the added retinoid to ensure homogeneity. Female Sprague-Dawley rats received an i.v. injection of MNU (45 mg/kg body weight) at 50 days of age. Diet supplementation with retinoids was initiated three days after MNU. A group of rats receiving retinyl acetate (1 mmol/kg of diet) served as the positive control. The animals were palpated for mammary tumors 2×/week. At termination of the study, mammary tumors were processed for histological classification. Also, five rats/group had complete necropsies performed. The tissues were examined histologically for pathological lesions as additional toxicological evaluation. Extracts of the liver and mammary gland (5 rats/group) were analyzed by HPLC for retinyl palmitate and/or for the dosed retinoid. Statistical analyses of cancer incidence and latency were determined using logrank analysis, while differences in cancer multiplicity were determined employing the Armitage test.
In this assay, described previously (Grubbs et al., 1995; Shealy el al., 1997), a retinoid dissolved in a solution (vehicle) consisting of ethanol and trioctanoin plus small amounts of Tenox 20 and α-tocopherol was mixed with feed, and the mixture was fed to rats after intravenous injection of MNU.
^a Female Sprague-Dawley rats (10/group) received one i.v. injection of
MNU (45 mg/kg of body weight) at 50 days of age. Diet supplementation with
retinoids was initiated at 52 days of age and was continued until the
study was terminated 160 days after administration of MNU.
^b Treatment with retinoids is stated in millimoles of retinoid per
kilogram of diet (Wayne meal).

[10] = tested on: MNU-induced mammary tumors; details: with MNU, 1 mmol/kg diet
Experimental: The methods employed in the preparation of diets, analyses of retinoid-dietspecimens, and dietary treatment with retinoids of MNU-induced mammary carcinogenesis in Sprague-Dawley rats were described previously (Grubbs et al., 1995; Shealy et al., 1997). Briefly, diets were prepared by mixing each retinoid with Wayne meal or Teklad (4%) mash diet. For each kg of diet, the retinoid was dissolved in 12 g ethanol, 19 g trioctanoin, 0.05 mL Tenox 20, and 0.05 mL d,1-alpha tocopherol prior to incorporation into the feed using a Patterson-Kelly blender. Retinoid diet mixtures were stored at 4° C. Portions of each retinoid-diet mixture were analyzed for the added retinoid to ensure homogeneity. Female Sprague-Dawley rats received an i.v. injection of MNU (45 mg/kg body weight) at 50 days of age. Diet supplementation with retinoids was initiated three days after MNU. A group of rats receiving retinyl acetate (1 mmol/kg of diet) served as the positive control. The animals were palpated for mammary tumors 2×/week. At termination of the study, mammary tumors were processed for histological classification. Also, five rats/group had complete necropsies performed. The tissues were examined histologically for pathological lesions as additional toxicological evaluation. Extracts of the liver and mammary gland (5 rats/group) were analyzed by HPLC for retinyl palmitate and/or for the dosed retinoid. Statistical analyses of cancer incidence and latency were determined using logrank analysis, while differences in cancer multiplicity were determined employing the Armitage test.
^b Average number of palpable mammary tumors.
^c Diet supplementation with retinoids was initiated at 52 days of age
and was continued until the study was terminated 180 days after
administration of MNU. Treatment with retinoids is stated in millimoles of
retinoid per kilogram of diet (Wayne meal).
^d Female Sprague-Dawley rats received one i.v. injection of MNU (50
mg/kg of body weight) at 50 days of age.

[11] = After 1 week of 4° C., 10080 min
[12] = After 1 day in food cup (22° C.)
[13] = After 2 days in food cup (22° C.)
[14] = After 3 days in food cup (22° C.)
[15] = Expt. 3, 0.5 mmol/kg diet, 90 days
[16] = Expt. 3, 1 mmol/kg diet, 90 days
[17] = Expt. 3, 2 mmol/kg diet, 90 days
[18] = Expt. 2, 0.5 mmol/kg diet, 90 days
[19] = Expt. 2, 1 mmol/kg diet, 90 days
[20] = Expt. 2, 2 mmol/kg diet, 90 days

## CC#CCOCC#CC [Compound 1e, 2-butynyl ether]
[1]
  stability in refluxing ethanol: intramolecular cyclization

## CC1=C(/C=C/C(C)=C/C=C/C(C)=C/COCc2cc(C)ccc2C)C(C)(C)CCC1 [Compound 3c, Retinyl 2,5-Dimethylbenzyl Ether]
[2]; [11]
  % recovery of retinyl ether from feed: 96%
[2]; [12]
  % recovery of retinyl ether from feed: 106%
[2]; [13]
  % recovery of retinyl ether from feed: 96%
[2]; [14]
  % recovery of retinyl ether from feed: 102%
[2]; Immediately After Mixing
  % recovery of retinyl ether from feed: 103%
[2]
  % recovery of retinyl ether: 100%
  stability in diet mixtures: essentially unchanged
[3]
  toxicity in MNU-mammary cancer studies: not toxic in the mammary carcinogenesis studies
[4]; 90 days
  effectiveness in reducing the number of tumors per rat: not effective
[4]; [15]
  Tumors, % of Control Gp.: 104%
  Tumors, Avg. No. per Rat: 2.0
[4]; [16]
  Tumors, % of Control Gp.: 171%
  Tumors, Avg. No. per Rat: 3.3
[4]; [17]
  Tumors, % of Control Gp.: 109%
  Tumors, Avg. No. per Rat: 2.1
In vivo
  NOAEL: 431 mg/kg/day
  Toxic Dose: > 431 mg/kg day
  clinical toxicity (alopecia, scaly skin, limping): No evidence of clinical toxicity except for scaly skin
[5]
  Percent Inhibition of [3H] Retinol Binding (CRBP Assay): 65 ± 10%

## CC1=C(/C=C/C(C)=C/C=C/C(C)=C/COCc2ccccc2)C(C)(C)CCC1 [Compound 3d, Retinyl Benzyl Ether]
[5]; 150-fold molar excess
  binding to CRBP, in words: not conducive to CRBP binding; also recorded: does not bind significantly to CRBP
[5]
  Percent Inhibition of [3H] Retinol Binding (CRBP Assay): 5 ± 5%

## COc1ccc(COC/C=C(C)/C=C/C=C(C)/C=C/C2=C(C)CCCC2(C)C)cc1 [Compound 3e, Retinyl 4-Methoxybenzyl Ether]
[6]
  Kp at 24 h: 41 ± 14
[3]
  toxicity in MNU-mammary cancer studies: not toxic in the mammary carcinogenesis studies
[4]; 90-day assays, MNU-induced mammary carcinogenesis
  effectiveness compared with RTMBE: less effective than was RTMBE
[4]; 90-day study, 1 and 2 mmol/kg of diet
  reductions in the number of tumors per rat: 37-49%
[4]; 90 days
  effectiveness in reducing the number of tumors per rat: effective
[4]; [18]
  Tumors, % of Control Gp.: 71%
  Tumors, Avg. No. per Rat: 2.5
[4]; [19]
  Tumors, % of Control Gp.: 63%
  Tumors, Avg. No. per Rat: 2.2
[4]; [20]
  Tumors, % of Control Gp.: 51%
  Tumors, Avg. No. per Rat: 1.8
In vivo
  NOAEL: 433 mg/kg/day
  Toxic Dose: > 433 mg/kg day
  clinical toxicity (alopecia, scaly skin, limping): No evidence of clinical toxicity
[5]; 150-fold molar excess
  binding to CRBP, in words: not conducive to CRBP binding
[5]
  Percent Inhibition of [3H] Retinol Binding (CRBP Assay): 7 ± 7%

## COc1cccc(COC/C=C(C)/C=C/C=C(C)/C=C/C2=C(C)CCCC2(C)C)c1 [Compound 3f, Retinyl 3-Methoxy Benzyl Ether]
[5]; 150-fold molar excess
  binding to CRBP, in words: modest, but significant, binding affinity
[5]
  Percent Inhibition of [3H] Retinol Binding (CRBP Assay): 20 ± 5%

## CC1=C(/C=C/C(C)=C/C=C/C(C)=C/COCc2ccc(C)cc2)C(C)(C)CCC1 [Compound 3g, Retinyl 4-Methylbenzyl Ether]
[5]; 150-fold molar excess
  binding to CRBP, in words: not conducive to CRBP binding
[5]
  Percent Inhibition of [3H] Retinol Binding (CRBP Assay): 0%

## COc1cccc(COC/C=C(C)/C=C/C=C(C)/C=C/C2=C(C)CCCC2(C)C)c1OC [Compound 3h, Retinyl 2,3-Dimethoxybenzyl Ether]
[2]; [11]
  % recovery of retinyl ether from feed: 99.7%
[2]; [12]
  % recovery of retinyl ether from feed: 95%
[2]; [13]
  % recovery of retinyl ether from feed: 94%
[2]; [14]
  % recovery of retinyl ether from feed: 97.9%
[2]; Immediately After Mixing
  % recovery of retinyl ether from feed: 95%
[2]
  % recovery of retinyl ether: 98.7%
  stability in diet mixtures: essentially unchanged
[4]; 90 days
  effectiveness in reducing the number of tumors per rat: not effective
[4]; [15]
  Tumors, % of Control Gp.: 114%
  Tumors, Avg. No. per Rat: 2.2
[4]; [16]
  Tumors, % of Control Gp.: 104%
  Tumors, Avg. No. per Rat: 2.0
[4]; [17]
  Tumors, % of Control Gp.: 145%
  Tumors, Avg. No. per Rat: 2.8
[5]
  Percent Inhibition of [3H] Retinol Binding (CRBP Assay): 0%

## COc1ccc(COC/C=C(C)/C=C/C=C(C)/C=C/C2=C(C)CCCC2(C)C)c(OC)c1OC [Compound 3i, Retinyl 2,3,4-Trimethoxybenzyl Ether]
[5]
  Percent Inhibition of [3H] Retinol Binding (CRBP Assay): 5 ± 5%

## CC1=C(/C=C/C(C)=C/C=C/C(C)=C/COCc2c(C)cc(C)cc2C)C(C)(C)CCC1 [Compound 3j, Retinyl 2,4,6-Trimethylbenzyl Ether]
[5]
  Percent Inhibition of [3H] Retinol Binding (CRBP Assay): 7 ± 6%

## CC1=C(/C=C/C(C)=C/C=C/C(C)=C/COCc2ccc(Cl)cc2Cl)C(C)(C)CCC1 [Compound 3k, Retinyl 2,4-Dichlorobenzyl Ether]
[5]
  Percent Inhibition of [3H] Retinol Binding (CRBP Assay): 0%

## CC1=C(/C=C/C(C)=C/C=C/C(C)=C/COCc2c(Cl)cccc2Cl)C(C)(C)CCC1 [Compound 3l, Retinyl 2,6-Dichlorobenzyl Ether]
[5]
  Percent Inhibition of [3H] Retinol Binding (CRBP Assay): 40 ± 5%

## CC1=C(/C=C/C(C)=C/C=C/C(C)=C/COC(C)c2ccccc2)C(C)(C)CCC1 (stereo not drawn) [Compound 3m, Retinyl α-Methylbenzyl Ether]
[5]; 150-fold molar excess
  Binding to CRBP, rating: strong binding
[5]
  Percent Inhibition of [3H] Retinol Binding (CRBP Assay): 60 ± 0%

## CC(C)=CCOC/C=C(C)/C=C/C=C(C)/C=C/C1=C(C)CCCC1(C)C [RMBE, retinyl 3-methyl-2-butenyl ether]
[7]
  suppression of MNU-induced mammary cancer: inhibited the development of MNU-induced mammary cancer; also recorded: only modestly active
[8]
  accumulation of retinyl palmitate in the liver: did not cause

## CC(=O)OC/C=C(C)/C=C/C=C(C)/C=C/C1=C(C)CCCC1(C)C [Retinyl Acetate, retinyl acetate, reference compound]
[4]; 90 days, at 1 mmol/kg
  reduction of the number of tumors per rat: 66%
[4]; [19]
  Tumors, % of Control Gp.: 34%
  Tumors, Avg. No. per Rat: 1.2
[8]
  accumulation of retinyl palmitate in the liver: a toxic effect produced by efficacious amounts
[9]; 1 mmol/kg diet
  Adenocarcinomas, % of Control Group A: 70%
  Adenocarcinomas, Avg. No. Per Rat: 4.5
[9]; 1 mmol/kg feed
  reduction of average number of tumors per rat: 30%
[10]
  % of Control Gp., Day 90: 48%
  % of Control Gp., Day 180: 49%
  Avg No. Per Rat (palpable mammary tumors), Day 90: 1.1
  Avg No. Per Rat (palpable mammary tumors), Day 180: 3.1
